Reference: patent US20110183336A1, “Method to Predict Responsiveness of Breast Cancer to Polyamine-Type Chemotherapy” (THE REGENTS OF THE UNIVERSITY OF CALIFORNIA, priority 2007, published 2011)

Legend:
Assay in all cases: Cell growth inhibition assay (Cell Titer Glo)
Format in all cases: cell-based, human
HCC3153 = conditions: HCC3153, Basal A, 72 h
Protocol: (§1) Cell culture: Breast cell lines were obtained from the ATCC and from collections developed in the laboratories of Drs. Steve Ethier and Adi Gazdar.
(§2) Cell growth inhibition assay and data analysis: Cells were plated at proper density in 96-well plates such that they would remain in log growth at the end of assay time. The cells were allowed to attach overnight before being exposed to CGC-11047 for 72 h. Drugs were dissolved in water as 100 mM stock. For the dose response study, a set of 9 doses from 5×10^−3 to 1.3×10^−8 M (final concentration) in 1:5 serial dilution were added in triplicate wells. The final DMSO concentration in the treated well was 0.3% or less. The cell growth was determined using Cell Titer Glo (CTG) assay (CellTiter-Glo Luminescent Cell Viability Assay, Promega, Madison, Wis.), with slight modification form manufacturer's protocol, at day 0 (time when drug was added) and at day 3 of drug exposure. Briefly, CTG reagent was diluted with PBS (1:1, volume: volume) and the culture media was removed from the 96-well plate prior to adding 50 μl per well of the diluted CTG reagent. Luminescence from the assay was recorded using BIO-TEK FLx800.
(§3) Data calculations were made according to the method described by the NCI/NIH DTP Human Tumor Cell Line Screen Process (http://dtp.nci.nih.gov/branches/btb/ivclsp.html) and as described previously (Monks, A et al., JNCI 83:757-766, 1991). The percent growth curve is calculated as [(T−T0)/(C−T0)]×100, where T0 is the cell count at day 0, C is the vehicle control (e.g. 0.3% DMSO without drug) cell count at day 3, and T is the cell count at the test concentration. The GI50 and TGI value are determined as the drug concentration that results in a 50% and 0% growth at 72 h drug exposure. LC50 is calculated as [(T−T0)/T0]×100=−50, when T<T0.

ZR751 = conditions: ZR751, Luminal, 72 h
Protocol: as §1, §2, §3

HCC1428 = conditions: HCC1428, Luminal, 72 h
Protocol: as §1, §2, §3

T47D = conditions: Luminal, 72 h
Protocol: as §1, §2, §3

Hs578T = conditions: Basal B, 72 h
Protocol: as §1, §2, §3

MCF12A = conditions: N, Basal B, 72 h
Protocol: as §1, §2, §3

184B5 = conditions: 184B5, HMEC, 72 h
Protocol: as §1, §2, §3

T4 = conditions: T4, Basal B, 72 h
Protocol: as §1, §2, §3

SUM159PT = conditions: Basal B, 72 h
Protocol: as §1, §2, §3

HCC1419 = conditions: HCC1419, Luminal, 72 h
Protocol: as §1, §2, §3

MDAMB415 = conditions: MDAMB415, Luminal, 72 h
Protocol: as §1, §2, §3

BT549 = conditions: BT549, Basal B, 72 h
Protocol: as §1, §2, §3

SKBR3 = conditions: SKBR3, Luminal, 72 h
Protocol: as §1, §2, §3

184A1 = conditions: 184A1, HMEC, 72 h
Protocol: as §1, §2, §3

MDAMB231 = conditions: MDAMB231, Basal B, 72 h
Protocol: as §1, §2, §3

HCC1806 = conditions: HCC1806, Basal A, 72 h
Protocol: as §1, §2, §3

MCF7 = conditions: MCF7, Luminal, 72 h
Protocol: as §1, §2, §3

HCC38 = conditions: HCC38, Basal B, 72 h
Protocol: as §1, §2, §3

SUM1315MO2 = conditions: SUM1315MO2, Basal B, 72 h
Protocol: as §1, §2, §3

MDAMB157 = conditions: MDAMB157, Basal B, 72 h
Protocol: as §1, §2, §3

HCC1954 = conditions: HCC1954, Basal A, 72 h
Protocol: as §1, §2, §3

ZR7530 = conditions: ZR7530, Luminal, 72 h
Protocol: as §1, §2, §3

MDAMB436 = conditions: MDAMB436, Basal B, 72 h
Protocol: as §1, §2, §3

CCNCCCNC/C=C\CNCCCNCC [CGC-11047]
TGI (HCC3153): 8 µM
GI50 (HCC3153; Homo sapiens): 1.3 µM
GI50 (ZR751; Homo sapiens, ZR-75-1): 13 µM
TGI (ZR751): 800 µM
TGI (HCC1428): 300 µM
GI50 (HCC1428; Homo sapiens): 1 µM
GI50 (T47D; Homo sapiens): 0.4 µM
TGI (T47D): 200 µM
TGI (Hs578T): 500 µM
GI50 (Hs578T; Homo sapiens, Hs-578T): 0.4 µM
GI50 (MCF12A; Homo sapiens, MCF-12A): 100 µM
TGI (MCF12A): >100 µM
TGI (184B5): 400 µM
GI50 (184B5; Homo sapiens): 300 µM
GI50 (T4; Homo sapiens): 2 µM
TGI (T4): 800 µM
TGI (SUM159PT): 3000 µM
GI50 (SUM159PT; Homo sapiens, SUM-159-PT): 200 µM
TGI (HCC1419): 31 µM
GI50 (HCC1419; Homo sapiens): 7 µM
GI50 (MDAMB415; Homo sapiens, MDA-MB-415): 20 µM
TGI (MDAMB415): 100 µM
TGI (BT549): 1300 µM
GI50 (BT549; Homo sapiens, BT-549): 1 µM
GI50 (SKBR3; Homo sapiens, SK-BR-3): 5000 µM
TGI (SKBR3): >5000 µM
TGI (184A1): 220 µM
GI50 (184A1; Homo sapiens): 2 µM
GI50 (MDAMB231; Homo sapiens, MDA-MB-231): 2000 µM
TGI (MDAMB231): >5000 µM
TGI (HCC1806): 330 µM
GI50 (HCC1806; Homo sapiens): 0.6 µM
GI50 (MCF7; Homo sapiens): 90 µM
TGI (MCF7): 1200 µM
TGI (HCC38): 300 µM
GI50 (HCC38; Homo sapiens): 40 µM
GI50 (SUM1315MO2; Homo sapiens): 700 µM
TGI (SUM1315MO2): 1300 µM
GI50 (MDAMB157; Homo sapiens, MDA-MB-157): 200 µM
TGI (MDAMB157): 1000 µM
TGI (HCC1954): 8 µM
GI50 (HCC1954; Homo sapiens): 1 µM
GI50 (ZR7530; Homo sapiens, ZR-75-30): 0.8 µM
TGI (ZR7530): 1000 µM
GI50 (MDAMB436; Homo sapiens, MDA-MB-436): 1000 µM
TGI (MDAMB436): 3000 µM
